Values joined by “and” are separate entries in the source; they are usually repeats but may differ in a detail not shown here. Identical values can stand only once. Like-named read-outs stand apart in the source and are kept apart here. Each block holds one molecule with its values, some of them ahead of it.
Tests used:
CD45RO memory T cells = assay: Annexin V/propidium iodide FACS apoptosis of stimulated CD45RO T cells; format: cell-based, human; settings: rIL-2, anti-CD3 plus anti-CD28; 5 days; more pronounced than in CD45RA T cells
Excerpt: Isolation of primary CD4^+ T lymphocytes and lamina propria cells: Human peripheral blood mononuclear cells (PBMCs) from healthy volunteers (25-42 years of age) and patients with Crohn's disease (31-65 years of age) were isolated using Ficoll-Hypaque gradients. PBMCs were further purified using CD4 monoclonal antibodies attached to immunomagnetic beads according to the manufacturer's protocol, followed by treatment with Detachabead (Dynal; Oslo, Norway). In some cases, CD4^+ T cells were further separated by negative selection techniques using CD45RO or CD45RA monoclonal antibodies (PharMingen; Heidelberg, Germany) and immunomagnetic beads (Dynal). […]
For FACS analysis, apoptotic cells were detected by staining with annexin V and propidium iodide using the Annexin V FITC Apoptosis Detection Kit I (PharMingen) (Atreya et al., Nat. Med. 6:583-588 (2000)). […] To verify the results obtained with the annexin V/propidium iodide staining, analysis of T cells displaying DNA fragmentation was also determined by the Nicoletti technique, as described in (Nicoletti et al., J. Immunol. Methods 139:271-279 (1991)). […] Finally, cells were analyzed on a FACScan flow cytometer. […]

NF-κB p50/p65 = assay: NF-κB electrophoretic mobility shift assay; format: cell-based, human; settings: EMSA
Description: Isolation of nuclear proteins: T lymphocytes were washed twice in cold PBS and resuspended in 500 μl of buffer A (10 mM HEPES, 1.5 mM MgCl2, 19 mM KCl, 0.5 mM PMSF, 1 mM DTT) followed by addition of 20 μl of Triton X-100 (Sigma-Aldrich) and incubation on ice for 5 minutes. Cells were centrifuged for 10 minutes at 4° C., followed by the resuspension of the nuclear pellet in buffer C (20 mM HEPES, 1.5 mM MgCl2, 0.2 mM EDTA, 25% glycerol, 0.5 mM PMSF, 1 mM DTT). Finally, the nuclei were homogenized using mini stir bars for 1 hour at 4° C. followed by centrifugation at 15,000 rpm for 15 minutes at 4° C. The concentration of nuclear proteins in supernatants was assessed using the Bio-Rad Protein Assay.
Electrophoretic mobility shift assays: Electrophoretic mobility shift assays (EMSAs) were performed as described in Atreya et al., supra. Oligonucleotides for EMSA were obtained from Santa Cruz Biotech (Heidelberg, Germany). The sequences were as follows: NF-κB, 5′-[sequence]-3′ (SEQ ID NO: 1) and 3′-[sequence]-5′ (SEQ ID NO: 2); and SP-1,5′-[sequence]-3′ (SEQ ID NO: 3) and 3′-[sequence]-5′ (SEQ ID NO: 4). Oligonucleotides were end labeled with [^32P]γ-ATP (>5000 Ci/mmol; Amersham; Arlington Heights, Ill., USA) using T4 polynucleotide kinase (New England Biolabs; Beverly, Mass., USA). […]

Crohn's disease = settings: CD patients, long-term azathioprine
Description: The diagnosis of CD was confirmed in all patients by radiographic, endoscopic, and histopathologic parameters. Clinical outcomes such as the Crohn's disease activity index (CDAI), number of flares per year, and demand for anti-TNF antibody (e.g., infliximab) treatment were determined on clinical visits.

bcl-xL mRNA = settings: anti-CD3- plus anti-CD28-activated T lymphocytes
Description: The mRNA of T cells was extracted at the indicated time points using the Tri-reagent (Sigma-Aldrich) according to the manufacturer's protocol. In brief, the cell pellet was lysed in 1 ml of Tri-reagent before addition of 200 μl of chloroform (Sigma-Aldrich; Steinheim, Germany). Each sample was gently mixed before incubation (for 5 minutes at 20° C.) and centrifugation (12,000 g for 15 minutes at 4° C.). The aqueous phase was transferred to a fresh tube, and 0.5 ml of isopropanol (Sigma-Aldrich) was added. Samples were allowed to stand for 5 minutes at room temperature before centrifugation at 12,000 g (for 10 minutes at 4° C.). The supernatants were removed, and the RNA pellet was washed in 75% ethanol.
Gene arrays: mRNA from T lymphocytes was analyzed by the human apoptosis expression array (R&D) as follows. To generate radiolabeled cDNA, 4 μl of human apoptosis-specific primers (R&D) were added to 4 μg of the isolated mRNA, heated in a thermal cycler at 90° C. for 2 minutes, and incubated at 42° C. for 180 minutes in the presence of reverse transcriptase buffer (50 mM Tris-HCl, 8 mM MgCl2, 30 mM KCl, 1 mM DTT), 333 μM dATP, 333 μM dGTP, 333 μM dTTP, 1.67 μM dCTP, 20 U of RNasin, 20 μCi of ^32P-labeled dCTP (Amersham; Freiburg, Germany), and 50 U of AMV reverse transcriptase. […]

Rac1 = settings: primary T cells upon azathioprine treatment
[1] = all 47 CD patients
Description: Blood Sampling: Blood samples from patients were collected into EDTA tubes and the packed red blood cells (RBCs) were isolated by centrifugation within 6 hours after blood drawing. The RBCs were immediately frozen at −80° C. until analysis.
6-thioguanine nucleotides (6-TGN) and the methylated metabolites S-methyl-mercaptopurine ribonucleotides (6-MMPR) and S-methyl 6-thioguanosine nucleotides (MTGN) were quantified by a high-performance liquid chromatographic (HPLC) assay as described in Herrlinger et al., Aliment Pharmacol Ther. 19:1269-1276 (2004).
The concentrations of 6-thioguanosine 5′-mono-, di-, and triphosphate (TGMP, TGDP, and TGTP, respectively) were determined separately by the method described in Example 2 above. […] The 5′-phosphates were isolated, extracted, and oxidized as described by Rabel et al., Anal. Biochem. 224:315-322 (1995) with slight modifications. HPLC separation was achieved by reversed phase HPLC on a C18 column with phosphate buffer (20 mM, pH 6.8) and 5 mM tetrabutylammonium hydrogen sulfate/acetonitrile 84:16 (v/v) as the mobile phase. Using fluorescence detection, quantification of 6-thioguanosine nucleotides was performed at concentration ranges of 25 to 400 pmol/100 μL RBC for TGTP, 10 to 100 pmol/100 μL for TGDP, and 10 to 50 pmol/100 μL RBC for TGMP.

[2] = subgroup n=6 (low 6-TGN, low TGTP ratio)
[3] = subgroup n=13 (high 6-TGN and TGDP levels, ratio less than about 0.85)
[4] = subgroup n=13 (high 6-TGN and TGTP levels, ratio greater than about 0.85)
[5] = subgroup n=15 (low 6-TGN, high TGTP ratio)
[6] = subgroup n=21 (low 6-TGN levels)
[7] = subgroup n=26 (high 6-TGN levels)

Compound: Sc1ncnc2nc[nH]c12 [6-MP, 6-mercaptopurine]
apoptosis of CD45RO memory T cells (CD45RO memory T cells): induced apoptosis
nuclear expression of the p65 subunit of NF-κB (NF-κB p50/p65): downregulated
CD28-induced activation of NF-κB p50/p65 (NF-κB p50/p65; nuclear proteins after 3 days): suppressed

TGMP levels in RBC [1]: only detectable in traces
Compound: Cn1cnc([N+](=O)[O-])c1Sc1ncnc2nc[nH]c12 [azathioprine, Azathioprine]
apoptosis of CD45RO memory T cells (CD45RO memory T cells): induced apoptosis
CDAI (Crohn's disease activity index) (Crohn's disease; [2]): 151 ± 55
Flares (number of flares per year) (Crohn's disease; [2]): 1.4 ± 1.3
INF (infliximab use) (Crohn's disease; [2]): 1.0 ± 0.6
Response (clinical response rate) (Crohn's disease; [2]): 0.5 ± 0.3
CDAI (Crohn's disease activity index) (Crohn's disease; [3]): 277 ± 62
Flares (number of flares per year) (Crohn's disease; [3]): 2.1 and 2.1 ± 0.9
INF (infliximab use) (Crohn's disease; [3]): 1.1 and 1.1 ± 0.5
Response (clinical response rate) (Crohn's disease; [3]): 0.15 and 0.15 ± 0.1
CDAI (Crohn's disease activity index) (Crohn's disease; [4]): 149 ± 35
INF (infliximab use) (Crohn's disease; [4]): 0.36 and 0.36 ± 0.2
CDAI (Crohn's disease activity index) (Crohn's disease; [5]): 189 ± 28
Flares (number of flares per year) (Crohn's disease; [5]): 1.9 ± 1
INF (infliximab use) (Crohn's disease; [5]): 1.1 ± 0.7
Response (clinical response rate) (Crohn's disease; [5]): 0.1 ± 0.1
CDAI (Crohn's disease activity index) (Crohn's disease; [6]): 176 ± 26
Flares (number of flares per year) (Crohn's disease; [6]): 2.1 ± 0.9
INF (infliximab use) (Crohn's disease; [6]): 1.1 ± 0.5
Response (clinical response rate) (Crohn's disease; [6]): 0.16 and 0.16 ± 0.1
CDAI (Crohn's disease activity index) (Crohn's disease; [7]): 206 ± 36
Flares (number of flares per year) (Crohn's disease; [7]): 1.1 ± 0.6
INF (infliximab use) (Crohn's disease; [7]): 0.7 ± 0.3
bcl-xL mRNA expression (bcl-xL mRNA): strongly suppressed
mRNA expression of other genes such as IL-2R, TACI, and GAPDH (bcl-xL mRNA): not affected
6-TG detected in Rac1 pull-downs (Rac1): approximately 120 pg of 6-TG per microgram

Source: patent US7524851B2 (Robert Bosch Gesellschaft fur Medizinische Forschung (RBMF), priority 2003, dated 2009)
